Results published in ChEMBL document CHEMBL1139781, “Pyrazolo[3,4-d]pyrimidines as potent inhibitors of the insulin-like growth factor receptor (IGF-IR)” (Bioorg Med Chem Lett, 2007).

Columns and labels:
[1] = molecular target: T1, Insulin-like growth factor 1 receptor (Homo sapiens, UniProt P08069); test: Inhibition of human IGF1R expressed in Sf21 cells by time-resolved fluorescence assay
[2] = molecular target: T1, Insulin-like growth factor 1 receptor; test: Inhibition IGF1R phosphorylation in human MiaPaCa2 cells; assay type: cell-based
[3] = Bioavailability in mouse; assay type: ADME, organism-based; settings: in vivo
Mus musculus [4] = test: In vivo inhibition of IFG1R autophosphorylation in C57BL/6 mouse lung at 12.5 mg/kg, po after 4 hrs; assay type: organism-based; parameters: dose 12.5 mg/kg, route oral; settings: C57BL6, po
[5] = Drug concentration in C57BL/6 mouse plasma at 12.5 mg/kg, po after 4 hrs; assay type: ADME, organism-based, C57BL6; parameters: dose 12.5 mg/kg, route oral
Mus musculus [6] = test: Dose normalized AUC in po dosed mouse; assay type: ADME, organism-based; settings: in vivo
Mus musculus [7] = test: Dose normalized AUC in iv dosed mouse; assay type: ADME, organism-based; settings: in vivo
[8] = Plasma clearance in mouse; assay type: ADME, organism-based
[9] = Half life in mouse; assay type: ADME, organism-based; settings: in vivo

T1 sequence (P08069 31-736 limits assumed): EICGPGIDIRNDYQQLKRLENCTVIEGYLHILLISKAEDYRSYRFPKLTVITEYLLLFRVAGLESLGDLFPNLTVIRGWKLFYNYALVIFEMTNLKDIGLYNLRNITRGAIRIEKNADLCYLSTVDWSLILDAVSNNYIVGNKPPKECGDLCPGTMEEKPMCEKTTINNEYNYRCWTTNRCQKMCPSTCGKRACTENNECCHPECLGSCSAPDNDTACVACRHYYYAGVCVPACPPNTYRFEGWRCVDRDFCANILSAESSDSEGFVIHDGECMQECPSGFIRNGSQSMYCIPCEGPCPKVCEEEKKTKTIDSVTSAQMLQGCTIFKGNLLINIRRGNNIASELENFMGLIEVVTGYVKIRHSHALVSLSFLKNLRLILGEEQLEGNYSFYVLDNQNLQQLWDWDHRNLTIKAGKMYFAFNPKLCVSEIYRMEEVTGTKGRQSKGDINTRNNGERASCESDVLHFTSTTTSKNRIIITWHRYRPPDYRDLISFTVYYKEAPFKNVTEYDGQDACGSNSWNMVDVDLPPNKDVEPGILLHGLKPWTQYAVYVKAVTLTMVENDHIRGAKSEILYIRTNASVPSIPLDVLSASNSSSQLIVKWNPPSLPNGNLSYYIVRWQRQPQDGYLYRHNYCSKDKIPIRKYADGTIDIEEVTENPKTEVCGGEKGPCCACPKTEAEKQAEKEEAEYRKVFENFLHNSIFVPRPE
T1 sequence (P08069 741-1367 limits assumed): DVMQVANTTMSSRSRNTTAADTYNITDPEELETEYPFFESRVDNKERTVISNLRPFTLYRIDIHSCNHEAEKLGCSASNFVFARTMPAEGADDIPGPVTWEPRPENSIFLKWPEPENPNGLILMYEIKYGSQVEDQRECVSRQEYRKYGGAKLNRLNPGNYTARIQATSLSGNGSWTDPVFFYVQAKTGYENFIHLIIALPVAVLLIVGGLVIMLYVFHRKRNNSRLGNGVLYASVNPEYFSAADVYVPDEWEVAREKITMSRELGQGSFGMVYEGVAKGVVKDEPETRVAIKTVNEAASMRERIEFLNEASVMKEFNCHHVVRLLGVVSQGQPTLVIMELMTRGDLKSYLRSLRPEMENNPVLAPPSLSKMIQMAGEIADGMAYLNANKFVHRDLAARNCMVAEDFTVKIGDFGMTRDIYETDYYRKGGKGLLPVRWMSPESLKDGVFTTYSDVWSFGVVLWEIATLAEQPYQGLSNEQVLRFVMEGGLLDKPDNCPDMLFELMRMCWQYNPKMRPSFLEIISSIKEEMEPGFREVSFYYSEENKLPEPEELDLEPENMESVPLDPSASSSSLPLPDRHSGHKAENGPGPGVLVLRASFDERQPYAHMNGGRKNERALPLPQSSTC

Row | IC50 [1] [µM] | IC50 [2] [µM] | Structure (SMILES) | further results
1 | 0.125 | 0.252 | Nc1ncnc2c1c(-c1ccc3[nH]c(Cc4c(Cl)cccc4Cl)nc3c1)nn2[C@H]1CC[C@H](N2CCOCC2)CC1 | 
2 | 0.09 | 0.113 | Nc1ncnc2c1c(-c1ccc3[nH]c(Cc4c(F)cccc4Cl)nc3c1)nn2[C@H]1CC[C@H](N2CCOCC2)CC1 | 
3 | 0.173 | 0.197 | Nc1ncnc2c1c(-c1ccc3nc(Cc4cccc(F)c4F)[nH]c3c1)nn2[C@H]1CC[C@H](N2CCOCC2)CC1 | 
4 | 0.176 | 0.787 | Nc1ncnc2c1c(-c1ccc3[nH]c(-c4ccccc4)nc3c1)nn2[C@H]1CC[C@H](N2CCOCC2)CC1 | 
5 | 0.038 | 0.117 | Cc1ccccc1Cc1nc2ccc(-c3nn([C@H]4CC[C@H](N5CCOCC5)CC4)c4ncnc(N)c34)cc2[nH]1 | 
6 | 0.037 | 0.09 | Nc1ncnc2c1c(-c1ccc3nc(Cc4ccccc4Cl)[nH]c3c1)nn2[C@H]1CC[C@H](N2CCOCC2)CC1 | bioavailability [3]: 28%; inhibition at 12.5 mg/kg (Mus musculus [4]): 92%; concentration at 4 h [5]: 2.4 µM; AUC (Mus musculus [6]): 0.43 µmol·h/L/mg/kg; AUC (Mus musculus [7]): 1.5 µmol·h/L/mg/kg; clearance [8]: 1.2 L/h/kg; half-life [9]: 1.2 h
7 | 2.32 |  | Nc1ncnc2c1c(-c1ccc3[nH]c(Cc4cccc(Cl)c4Cl)nc3c1)nn2[C@H]1CC[C@H](N2CCOCC2)CC1 | 
8 | 0.081 | 0.142 | COc1ccccc1Cc1nc2ccc(-c3nn([C@H]4CC[C@H](N5CCOCC5)CC4)c4ncnc(N)c34)cc2[nH]1 | 
9 | 0.064 | 0.094 | Nc1ncnc2c1c(-c1ccc3nc(Cc4ccccc4)[nH]c3c1)nn2[C@H]1CC[C@H](N2CCOCC2)CC1 | bioavailability [3]: 15%; AUC (Mus musculus [6]): 0.16 µmol·h/L/mg/kg; AUC (Mus musculus [7]): 1.1 µmol·h/L/mg/kg; clearance [8]: 2.3 L/h/kg; half-life [9]: 1 h
10 | 0.071 | 0.065 | Nc1ncnc2c1c(-c1ccc3[nH]c(Cc4ccccc4Br)nc3c1)nn2[C@H]1CC[C@H](N2CCOCC2)CC1 | 
11 | 0.051 | 0.168 | Nc1ncnc2c1c(-c1ccc3nc(Cc4ccccc4F)[nH]c3c1)nn2[C@H]1CC[C@H](N2CCOCC2)CC1 | 

Further lines, the molecule ahead of its results:

Row | Structure (SMILES) | IC50 [1] [µM] | IC50 [2] [µM] | further results
12 | Cc1cc(-c2nn([C@H]3CC[C@H](N4CCOCC4)CC3)c3ncnc(N)c23)cc2[nH]c(Cc3ccccc3)nc12 | 4.33 | 2.79 | 
13 | Cc1nc(Cc2nc3ccc(-c4nn([C@H]5CC[C@H](N6CCOCC6)CC5)c5ncnc(N)c45)cc3[nH]2)cs1 | 3.31 | 1.54 | 
14 | Nc1ncnc2c1c(-c1ccc3nc(Cc4ccccn4)[nH]c3c1)nn2[C@H]1CC[C@H](N2CCOCC2)CC1 | 2.34 | 2.65 | 
15 | Nc1ncnc2c1c(-c1ccc3nc(Cc4cccc(F)c4)[nH]c3c1)nn2[C@H]1CC[C@H](N2CCOCC2)CC1 | 0.058 | 0.14 | 
16 | Nc1ncnc2c1c(-c1ccc3nc(Cc4ccc(Cl)c(Cl)c4)[nH]c3c1)nn2[C@H]1CC[C@H](N2CCOCC2)CC1 | 0.488 | 0.429 | 
17 | Cn1c(Cc2ccccc2)nc2cc(-c3nn([C@H]4CC[C@H](N5CCOCC5)CC4)c4ncnc(N)c34)ccc21 | 0.035 | 0.132 | 
18 | Nc1ncnc2c1c(-c1ccc3nc(Cc4ccc(F)cc4)[nH]c3c1)nn2[C@H]1CC[C@H](N2CCOCC2)CC1 | 0.924 | 1.25 | 
19 | Nc1ncnc2c1c(-c1ccc3nc(Cc4cc(F)cc(F)c4)[nH]c3c1)nn2[C@H]1CC[C@H](N2CCOCC2)CC1 | 0.152 | 0.183 | 
20 | Nc1ncnc2c1c(-c1ccc3nc(Cc4ccc(Cl)cc4)[nH]c3c1)nn2[C@H]1CC[C@H](N2CCOCC2)CC1 | 0.642 | 0.637 | 
21 | Nc1ncnc2c1c(-c1ccc3nc(Cc4ccsc4)[nH]c3c1)nn2[C@H]1CC[C@H](N2CCOCC2)CC1 | 0.032 | 0.084 | 
22 | Nc1ncnc2c1c(-c1ccc3nc(Cc4ccc(F)c(F)c4)[nH]c3c1)nn2[C@H]1CC[C@H](N2CCOCC2)CC1 | 0.674 | 0.819 | 
23 | Nc1ncnc2c1c(-c1ccc3nc(Cc4c(F)cccc4F)[nH]c3c1)nn2[C@H]1CC[C@H](N2CCOCC2)CC1 | 0.079 | 0.104 | 
24 | CN1CCN([C@H]2C[C@@H](c3nc(-c4ccc5ccc(-c6ccccc6)nc5c4)c4c(N)nccn43)C2)CC1 | 0.037 | 0.058 | 
25 | Cc1ccc(Cc2nc3ccc(-c4nn([C@H]5CC[C@H](N6CCOCC6)CC5)c5ncnc(N)c45)cc3[nH]2)cc1 | 0.07 | 0.257 | 
26 | Cc1cccc(Cc2nc3ccc(-c4nn([C@H]5CC[C@H](N6CCOCC6)CC5)c5ncnc(N)c45)cc3[nH]2)c1 | 0.186 | 0.267 | 
27 | Nc1ncnc2c1c(-c1ccc3nc(Cc4cccc(Cl)c4)[nH]c3c1)nn2[C@H]1CC[C@H](N2CCOCC2)CC1 | 0.123 | 0.372 | 
28 | Nc1ncnc2c1c(-c1ccc3nc(Cc4ccc5ccccc5c4)[nH]c3c1)nn2[C@H]1CC[C@H](N2CCOCC2)CC1 | 1.31 | 2.34 | 
29 | Nc1ncnc2c1c(-c1ccc3nc(Cc4cccs4)[nH]c3c1)nn2[C@H]1CC[C@H](N2CCOCC2)CC1 | 0.023 | 0.056 | bioavailability [3]: 9%; AUC (Mus musculus [6]): 0.039 µmol·h/L/mg/kg; AUC (Mus musculus [7]): 0.42 µmol·h/L/mg/kg; clearance [8]: 4.6 L/h/kg; half-life [9]: 0.6 h
